From PMC6891263, “Alkaloids with Nitric Oxide Inhibitory Activities from the Roots of Isatis tinctoria” (Molecules, 2019)

Tests used:
[1] = system: RAW264.7 cells; experiment: Cytotoxicity by Cell Counting Kit-8 (CCK-8); conditions: CCK-8, tested at 25, 50 and 100 μM
Description: Inhibitory Assay of NO Production
Cytotoxicity was examined using the Cell Counting Kit-8 (CCK-8). RAW264.7 cells were taken from logarithmic growth stage and the cell density reached above 80%. And then, the cells were inoculated on 96-well cell culture plates at […], with 3 ×10^4 cells per well, cultured overnight at 37 °C with 5% CO 2. After 24h, the culture medium in the 96-well plate was discarded, the solution was changed and different concentrations (25 μM, 50 μM and 100 μM) of drugs were added. The absorbance at 450 nm was measured using a microplate reader (Thermo Fisher Scientific). Viability was defined as the ratio (expressed as a percentage) of absorbance values of treated cells to untreated cells.
(§1) Compounds 1-23 were dissolved in dimethyl sulfoxide (DMSO) and diluted with complete medium to 6 degrees of concentration […]
were maintained in Dulbecco’s modified Eagle’s medium (high-glucose condition) supplemented with 10% fetal calf serum, 100 U/mL penicillin, and 100 μg/mL streptomycin at 37 °C in 5% CO 2. […]

[2] = system: nitric oxide (NO) production, LPS-stimulated RAW264.7 macrophages; experiment: Inhibitory assay of NO production (Griess reagent) in LPS-stimulated RAW264.7 macrophages; assay type: cell-based; conditions: LPS 100 ng/mL for 24 h, 30 min pretreatment, mean ± SD (n = 3)
Description: NO is a messenger molecule that is widespread in cells and can affect a variety of physiological and pathological processes. The production of NO causes tissue damage and can trigger a variety of inflammatory diseases. LPS induces the release of NO from RAW264.7 cells by detecting the release of NO widely used to investigate the anti-inflammatory effects of the compounds [2, 10, 40]. […]
Inhibitory Assay of NO Production […]
as §1
were maintained in Dulbecco’s modified Eagle’s medium (high-glucose condition) supplemented with 10% fetal calf serum, 100 U/mL penicillin, and 100 μg/mL streptomycin at 37 °C in 5% CO 2. RAW 264.7 cells were pretreated with each tested compound for 30 min, and then stimulated with lipopolysaccharide (LPS) (100 ng/mL) for 24 h. Aminoguanidine hydrochloride (100 μM) was used as a positive control. The NO production was measured using the Griess reagent. Briefly, the cell culture supernatant was reacted with equal volumes of Griess reagent in a 96-well plate for 10 min, and then the absorbance at 540 nm was measured by a plate reader. All experiments were performed in triplicate. All tested compounds were prepared as stock solutions with a concentration of 10 mM in DMSO. […]

[3] = Mus musculus, RAW264.7, RAW 264.7 cell line

Compound	Cytotoxicity [1]	IC50 [2, 3]	IC50 ([2]; RAW 264.7 cell line)
O=C(O)CCCn1c(=O)[nH]c2ccccc2c1=O [Compound 12, 4-(2,4-dioxo-1,2-dihydroquinazolin-3(4H)-yl)butanoic acid]	>100 µM	> 100 µM	
O=C(O)c1cnc2ccccc2c1O [Compound 21, 4(1H)-quinolone-3-carboxylic acid]	>100 µM	> 100 µM	
Nc1cc(C(=O)O)c2ccccc2n1 [Compound 19, 2-amino-4-quinolinecarboxylic acid]	>100 µM	> 100 µM	
NC(=O)C(c1[nH]c2ccccc2c1OC1OC(CO)C(O)C(O)C1O)c1c[nH]c2ccccc12 (centres unmarked) [Compound 23, Isatindigoside D]	>100 µM	> 100 µM	
O=c1cc(-c2ccc(O)cc2)c2ccccc2[nH]1 [Compound 4, 4-p-hydroxyphenyl-2(1H)-quinolinone]	>100 µM	> 100 µM	
O=c1c2ccccc2nc2n1CCC(c1c[nH]c3ccccc13)=C2 [Compound 3, Isatisindigoticanine G]	>100 µM	> 100 µM	
Oc1ccnc2ccccc12 [Compound 20, 4(1H)-quinolinone]	>100 µM		
Cc1nc2ccccc2c(=O)[nH]1 [Compound 17, 2-methyl-4(3H)-quinazolinone]	>100 µM		
COC(=O)CCCn1c(=O)[nH]c2ccccc2c1=O [Compound 13, methyl 4-(2,4-dioxo-1,2-dihydroquinazolin-3(4H)-yl)butanoate]	>100 µM	> 100 µM	
COc1ccc2nc(-c3cc4ccccc4[nH]3)[nH]c(=O)c2c1 [Compound 5, 2-(1H-indol-2-yl)-6-methoxy-4(3H)-quinazolinone]	>100 µM	> 100 µM	
O=c1[nH]c(-c2ccccc2O)nc2ccccc12 [Compound 6, 2-(2-hydroxyphenyl)-4(3H)-quinazolinone]	>100 µM	> 100 µM	
Cc1c(O)c2ccccc2[nH]c1=O [Compound 18, 4-hydroxy-3-methyl-2(1H)-quinolinone]	>100 µM	> 100 µM	
Cc1nc(O)nc2ccccc12 [Compound 16, 4-methyl-1,2-dihydro-2-oxoquinazoline]	>100 µM	> 100 µM	
O=c1[nH]c2ccccc2c(=O)n1CCCCO [Compound 11, indiforine C]	>100 µM	> 100 µM	
O=c1cc(-c2ccc(O)cc2)c2cc(O)ccc2[nH]1 [Compound 1, Isatisindigoticanine E]	>100 µM	> 100 µM	
O=C(O)CCn1c(=O)[nH]c2ccccc2c1=O [Compound 10, 3-(2,4-dioxo-1,2-dihydroquinazolin-3(4H)-yl)propanoic acid]	>100 µM	> 100 µM	
COc1cccc2[nH]c(=O)cc(-c3cc4ccccc4[nH]3)c12 [Compound 2, Isatisindigoticanine F]	>100 µM	> 100 µM	
O=C(O)c1ccccc1-n1cnc2ccccc2c1=O [Compound 15, 3-(2-carboxyphenyl)-4(3H)-quinazolinone]	>100 µM	5 ± 1.3 µM	
O=c1c2ccccc2ncn1-c1ccccc1O [Compound 14, 3-(2-hydroxyphenyl)-4(3H)-quinazolinone]	>100 µM	> 100 µM	
2-(1H-indol-2-yl)-4(3H)-quinolinone [Compound 8]			> 100 µM
C=CCCc1nc2ccccc2c(=O)[nH]1 [Compound 7, 2-(but-3-en-1-yl)-4(3H)-quinazolinone]	>100 µM	> 100 µM	
Cl.N=C(N)NN [AG, aminoguanidine hydrochloride, reference compound]	>100 µM		22.7 ± 0.4 µM
